Results from US8846947B2, “Benzimidazoles and related analogs as sirtuin modulators” (GlaxoSmithKline LLC, priority 2008, dated 2014).

Target: T1, SIRT1 (Homo sapiens, UniProt Q96EB6)
T1 sequence (Q96EB6 1-747): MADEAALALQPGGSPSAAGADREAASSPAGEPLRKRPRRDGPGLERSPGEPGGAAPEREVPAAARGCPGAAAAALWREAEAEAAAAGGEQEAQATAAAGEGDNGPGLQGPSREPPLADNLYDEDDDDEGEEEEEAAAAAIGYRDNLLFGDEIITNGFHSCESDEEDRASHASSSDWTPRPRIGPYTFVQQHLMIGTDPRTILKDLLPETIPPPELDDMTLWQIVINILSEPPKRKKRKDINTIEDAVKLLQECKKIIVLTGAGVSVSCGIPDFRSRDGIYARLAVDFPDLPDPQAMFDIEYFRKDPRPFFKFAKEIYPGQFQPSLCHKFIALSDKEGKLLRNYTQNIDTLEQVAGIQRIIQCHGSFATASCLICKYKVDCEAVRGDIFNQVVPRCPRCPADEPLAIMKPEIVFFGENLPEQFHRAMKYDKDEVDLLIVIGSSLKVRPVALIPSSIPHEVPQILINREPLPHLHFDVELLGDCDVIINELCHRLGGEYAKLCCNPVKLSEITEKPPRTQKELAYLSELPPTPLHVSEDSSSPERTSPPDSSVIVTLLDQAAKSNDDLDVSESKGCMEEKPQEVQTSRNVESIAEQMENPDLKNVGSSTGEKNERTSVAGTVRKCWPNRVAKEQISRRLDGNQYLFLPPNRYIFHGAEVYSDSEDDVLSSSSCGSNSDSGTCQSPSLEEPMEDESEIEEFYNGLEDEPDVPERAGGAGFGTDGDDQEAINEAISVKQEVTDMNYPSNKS
Assay: Mass spectrometry based SIRT1 deacetylase activation assay (acetylated p53-derived peptide substrate)
Assay type: biochemical
Conditions: 0.5 μM peptide substrate, 120 μM βNAD+, 10 nM SIRT1, 25 min at 25° C.; for EC1.5: read-out: EC1.5

For `O=C(Nc1nccs1)c1cccc2[nH]c(-c3ccccc3OC3CCNC3)nc12` (stereo not drawn) [Compound 459, 2-(2-(pyrrolidin-3-yloxy)phenyl)-N-(thiazol-2-yl)-1H-benzo[d]imidazole-4-carboxamide], the “Fold Act. (percent maximum fold activation)” value was “A (Fold activation >200%)” and the EC1.5 was 1000 to 25000 nM.

In the case of `O=C(Nc1ccccn1)c1cccc2[nH]c(-c3ccccc3OC3CCNC3)nc12` (stereo not drawn) [Compound 460], the “Fold Act. (percent maximum fold activation)” value is reported as “A (Fold activation >200%)” and the EC1.5 is reported as 1000 to 25000 nM.

`Cc1cc(C)nc(NC(=O)c2cccc3[nH]c(-c4cnc5c(c4)OCCN5C)nc23)c1` [Compound 461] was tested, and the “Fold Act. (percent maximum fold activation)” value was “A (Fold activation >200%)” and the EC1.5 was less than 1000 nM.

With `O=C(Nc1nccs1)c1cccc2[nH]c(-c3cccc(OC4CCNC4)c3)nc12` (stereo not drawn) [Compound 462] the “Fold Act. (percent maximum fold activation)” value was “A (Fold activation >200%)” and the EC1.5 was less than 1000 nM.

`O=C(Nc1ccccn1)c1cccc2[nH]c(-c3cccc(OC4CCNC4)c3)nc12` (stereo not drawn) [Compound 463] was tested, and the “Fold Act. (percent maximum fold activation)” value was “A (Fold activation >200%)” and the EC1.5 was 1000 to 25000 nM.

`Cc1cc(NC(=O)c2cccc3[nH]c(-c4ccc(F)cc4C(F)(F)F)nc23)no1` [Compound 464] was tested, and the “Fold Act. (percent maximum fold activation)” value was “A (Fold activation >200%)” and the EC1.5 was less than 1000 nM.

`O=C(Nc1cccnn1)c1cccc2[nH]c(-c3ccc(F)cc3C(F)(F)F)nc12` [Compound 465] was tested, and the “Fold Act. (percent maximum fold activation)” value was “A (Fold activation >200%)” and the EC1.5 was less than 1000 nM.

With `Cc1cc(NC(=O)c2cccc3[nH]c(-c4ccnn4-c4ccccc4)nc23)no1` [Compound 466] the “Fold Act. (percent maximum fold activation)” value was “A (Fold activation >200%)” and the EC1.5 was 1000 to 25000 nM.

`O=C(Nc1cccnn1)c1cccc2[nH]c(-c3ccnn3-c3ccccc3)nc12` [Compound 467] was tested, and the “Fold Act. (percent maximum fold activation)” value was “A (Fold activation >200%)” and the EC1.5 was 1000 to 25000 nM.

In the case of `O=C(NCc1ccccn1)c1cccc2[nH]c(-c3ccnn3-c3ccccc3)nc12` [Compound 468], the “Fold Act. (percent maximum fold activation)” value is reported as “B (Fold Activation <200%)” and the EC1.5 is reported as greater than 25000 nM.

With `Cc1cc(NC(=O)c2cccc3[nH]c(-c4cccc(N5CCOCC5)c4)nc23)no1` [Compound 469] the “Fold Act. (percent maximum fold activation)” value was “A (Fold activation >200%)” and the EC1.5 was 1000 to 25000 nM.

`O=C(Nc1cccnn1)c1cccc2[nH]c(-c3cccc(N4CCOCC4)c3)nc12` [Compound 470] was tested, and the “Fold Act. (percent maximum fold activation)” value was “A (Fold activation >200%)” and the EC1.5 was 1000 to 25000 nM.

`O=C(NCc1ccccn1)c1cccc2[nH]c(-c3cccc(N4CCOCC4)c3)nc12` [Compound 471] was tested, and the “Fold Act. (percent maximum fold activation)” value was “A (Fold activation >200%)” and the EC1.5 was 1000 to 25000 nM.

In the case of `O=C(Nc1ccccn1)c1cccc2[nH]c(-c3ccccc3OCCN3CCCC3)nc12` [Compound 472], the “Fold Act. (percent maximum fold activation)” value is reported as “B (Fold Activation <200%)” and the EC1.5 is reported as 1000 to 25000 nM.

`CN1CCOc2cc(-c3nc4c(C(=O)Nc5cnccn5)cccc4[nH]3)cnc21` [Compound 473] was tested, and the “Fold Act. (percent maximum fold activation)” value was “A (Fold activation >200%)” and the EC1.5 was 1000 to 25000 nM.

In the case of `O=C(Nc1ccccn1)c1cccc2[nH]c(-c3ccccc3OCCN3CCOCC3)nc12` [Compound 474], the “Fold Act. (percent maximum fold activation)” value is reported as “A (Fold activation >200%)” and the EC1.5 is reported as 1000 to 25000 nM.

For `Cc1cnc(NC(=O)c2cccc3[nH]c(-c4ccccc4OCCN4CCOCC4)nc23)s1` [Compound 475], the “Fold Act. (percent maximum fold activation)” value was “A (Fold activation >200%)” and the EC1.5 was 1000 to 25000 nM.

For `Cc1nc(NC(=O)c2cccc3[nH]c(-c4ccccc4OCCN4CCOCC4)nc23)sc1C` [Compound 476], the “Fold Act. (percent maximum fold activation)” value was “A (Fold activation >200%)” and the EC1.5 was 1000 to 25000 nM.

With `Cn1cc(-c2nc3c(C(=O)Nc4nccs4)cccc3[nH]2)c(C(F)(F)F)n1` [Compound 477] the “Fold Act. (percent maximum fold activation)” value was “A (Fold activation >200%)” and the EC1.5 was less than 1000 nM.

With `O=C(Nc1cccc(OCC(O)CO)c1)c1cccc2[nH]c(-c3ccccc3C(F)(F)F)nc12` (stereo not drawn) [Compound 478] the “Fold Act. (percent maximum fold activation)” value was “A (Fold activation >200%)” and the EC1.5 was less than 1000 nM.

In the case of `O=C(Nc1cccc(OCC(O)CO)c1)c1cccc2[nH]c(-c3ccc(Cl)cc3C(F)(F)F)nc12` (stereo not drawn) [Compound 479], the “Fold Act. (percent maximum fold activation)” value is reported as “A (Fold activation >200%)” and the EC1.5 is reported as less than 1000 nM.

In the case of `O=C(Nc1cccc(OCC(O)CO)c1)c1cccc2[nH]c(-c3cc(F)ccc3C(F)(F)F)nc12` (stereo not drawn) [Compound 480], the “Fold Act. (percent maximum fold activation)” value is reported as “A (Fold activation >200%)” and the EC1.5 is reported as less than 1000 nM.

In the case of `Cc1cc(NC(=O)c2cccc3[nH]c(-c4ccccc4C(F)(F)F)nc23)no1` [Compound 481], the “Fold Act. (percent maximum fold activation)” value is reported as “A (Fold activation >200%)” and the EC1.5 is reported as less than 1000 nM.

In the case of `O=C(Nc1nccs1)c1cccc2[nH]c(-c3ccccc3OCCN3CCCC3)nc12` [Compound 482, 2-(2-(2-(pyrrolidin-1-yl)ethoxy)phenyl)-N-(thiazol-2-yl)-1H-benzo[d]imidazole-4-carboxamide], the “Fold Act. (percent maximum fold activation)” value is reported as “A (Fold activation >200%)” and the EC1.5 is reported as 1000 to 25000 nM.

For `O=C(Nc1nccs1)c1cccc2[nH]c(-c3ccccc3OCCN3CCNCC3)nc12` [Compound 483], the “Fold Act. (percent maximum fold activation)” value was “A (Fold activation >200%)” and the EC1.5 was 1000 to 25000 nM.

For `O=C(Nc1ccccn1)c1cccc2[nH]c(-c3ccccc3OCCN3CCNCC3)nc12` [Compound 484], the “Fold Act. (percent maximum fold activation)” value was “A (Fold activation >200%)” and the EC1.5 was 1000 to 25000 nM.

`CC(C)N1CCN(CCOc2ccccc2-c2nc3c(C(=O)Nc4nccs4)cccc3[nH]2)CC1` [Compound 485] was tested, and the “Fold Act. (percent maximum fold activation)” value was “A (Fold activation >200%)” and the EC1.5 was 1000 to 25000 nM.

With `CC(C)N1CCN(CCOc2ccccc2-c2nc3c(C(=O)Nc4ccccn4)cccc3[nH]2)CC1` [Compound 486] the “Fold Act. (percent maximum fold activation)” value was “A (Fold activation >200%)” and the EC1.5 was 1000 to 25000 nM.

For `Cc1cc(NC(=O)c2cccc3[nH]c(-c4ccccc4OCCN4CCOCC4)nc23)n(C)n1` [Compound 487], the “Fold Act. (percent maximum fold activation)” value was “A (Fold activation >200%)” and the EC1.5 was 1000 to 25000 nM.

For `O=C(Nc1cccnn1)c1cccc2[nH]c(-c3ccccc3OCCN3CCOCC3)nc12` [Compound 488], the “Fold Act. (percent maximum fold activation)” value was “B (Fold Activation <200%)” and the EC1.5 was 1000 to 25000 nM.

With `O=C(Nc1cnccn1)c1cccc2[nH]c(-c3ccccc3OCCN3CCOCC3)nc12` [Compound 489] the “Fold Act. (percent maximum fold activation)” value was “B (Fold Activation <200%)” and the EC1.5 was 1000 to 25000 nM.

For `O=C(Nc1cccc(CN2CCCC2)c1)c1cccc2[nH]c(-c3ccc(Cl)cc3C(F)(F)F)nc12` [Compound 490, 2-(4-chloro-2-(trifluoromethyl)phenyl)-N-(3-(pyrrolidin-1-ylmethyl)phenyl)-1H-benzo[d]imidazole-4-carboxamide], the “Fold Act. (percent maximum fold activation)” value was “A (Fold activation >200%)” and the EC1.5 was less than 1000 nM.

`O=C(Nc1ccc(CN2CCCC2)cc1)c1cccc2[nH]c(-c3ccc(Cl)cc3C(F)(F)F)nc12` [Compound 491] was tested, and the “Fold Act. (percent maximum fold activation)” value was “A (Fold activation >200%)” and the EC1.5 was less than 1000 nM.

`O=C(Nc1ccc(OCC(O)CO)cc1)c1cccc2[nH]c(-c3ccccc3C(F)(F)F)nc12` (stereo not drawn) [Compound 492] was tested, and the “Fold Act. (percent maximum fold activation)” value was “A (Fold activation >200%)” and the EC1.5 was less than 1000 nM.

`O=C(Nc1ccc(OCC(O)CO)cc1)c1cccc2[nH]c(-c3ccc(Cl)cc3C(F)(F)F)nc12` (stereo not drawn) [Compound 493] was tested, and the “Fold Act. (percent maximum fold activation)” value was “A (Fold activation >200%)” and the EC1.5 was less than 1000 nM.

`O=C(Nc1ccc(OCC(O)CO)cc1)c1cccc2[nH]c(-c3cc(F)ccc3C(F)(F)F)nc12` (stereo not drawn) [Compound 494] was tested, and the “Fold Act. (percent maximum fold activation)” value was “A (Fold activation >200%)” and the EC1.5 was less than 1000 nM.

In the case of `Cc1cnc(NC(=O)c2cccc3[nH]c(-c4c(C(F)(F)F)nn(C)c4Cl)nc23)s1` [Compound 495], the “Fold Act. (percent maximum fold activation)” value is reported as “A (Fold activation >200%)” and the EC1.5 is reported as less than 1000 nM.

In the case of `O=C(Nc1ccccn1)c1cccc2[nH]c(-c3cccc4c3OC(F)(F)O4)nc12` [Compound 496], the “Fold Act. (percent maximum fold activation)” value is reported as “A (Fold activation >200%)” and the EC1.5 is reported as less than 1000 nM.

In the case of `CCCN1CCCc2ccc(-c3nc4c(C(=O)Nc5cccnc5)cccc4[nH]3)cc21` [Compound 497], the “Fold Act. (percent maximum fold activation)” value is reported as “A (Fold activation >200%)” and the EC1.5 is reported as 1000 to 25000 nM.

With `CC1(C)Cc2cc(-c3nc4c(C(=O)Nc5ccccn5)cccc4[nH]3)ccc2O1` [Compound 498] the “Fold Act. (percent maximum fold activation)” value was “B (Fold Activation <200%)” and the EC1.5 was 1000 to 25000 nM.

`CC1(C)Cc2cc(-c3nc4c(C(=O)Nc5cccnc5)cccc4[nH]3)ccc2O1` [Compound 499] was tested, and the “Fold Act. (percent maximum fold activation)” value was “A (Fold activation >200%)” and the EC1.5 was 1000 to 25000 nM.

`Cc1cnc(NC(=O)c2cccc3[nH]c(-c4ccc5c(c4)CC(C)(C)O5)nc23)s1` [Compound 500] was tested, and the “Fold Act. (percent maximum fold activation)” value was “A (Fold activation >200%)” and the EC1.5 was less than 1000 nM.

With `O=C(Nc1nccs1)c1cccc2[nH]c(-c3cc(Cl)ccc3OCCN3CCOCC3)nc12` [Compound 501] the “Fold Act. (percent maximum fold activation)” value was “A (Fold activation >200%)” and the EC1.5 was less than 1000 nM.

With `O=C(Nc1ccccn1)c1cccc2[nH]c(-c3cc(Cl)ccc3OCCN3CCOCC3)nc12` [Compound 502] the “Fold Act. (percent maximum fold activation)” value was “A (Fold activation >200%)” and the EC1.5 was 1000 to 25000 nM.

With `O=C(Nc1nccs1)c1cccc2[nH]c(-c3ccc(F)cc3OCCN3CCOCC3)nc12` [Compound 503] the “Fold Act. (percent maximum fold activation)” value was “B (Fold Activation <200%)” and the EC1.5 was 1000 to 25000 nM.
